Laboratory results reported in patent USRE44613E1, “N-substituted glycine derivatives: hydroxylase inhibitors” (GlaxoSmithKline LLC, priority 2007, dated 2013).
pEC50: −log10 of the molar value.

Tested on: Epo protein produced by Hep3B cell line
Test: Epo protein produced by Hep3B cell line using ELISA method
Type: cell-based
Conditions: Homo sapiens; Hep3B cells, 48 hours incubation, DMEM without serum; maximum concentration tested 100 micromolar; range stated jointly for ELISA and AlphaLISA
Protocol: Measure Epo Protein Produced by Hep3B Cell Line Using ELISA Method.
Hep3B cells obtained from the American Type Culture Collection (ATCC) are seeded at 2×10^4 cells/well in Dulbecco's Modified Eagle Medium (DMEM)+10% FBS in 96-well plates. Cells are incubated at 37 deg C./5% CO2/90% humidity (standard cell culture incubation conditions). After overnight adherence, medium is removed and replaced with DMEM without serum containing test compound or DMSO negative control. Following 48 hours incubation, cell culture medium is collected and assayed by ELISA to quantitate Epo protein.

pEC50: < 4.00
Compound: CC(C)(C)c1ccc(Cn2nc(-c3ccc(C(C)(C)C)cc3)c(O)c(C(=O)NCC(=O)O)c2=O)cc1 [Example 26, N-[(6-[4-(1,1-Dimethylethyl)phenyl]-2-{[4-(1,1-dimethylethyl)phenyl]methyl}-5-hydroxy-3-oxo-2,3-dihydro-4-pyridazinyl)carbonyl]glycine]
